As usually defined, the Kd is a measure of binding affinity in units of concentration. Low values mean a tighter complex, high ones a looser complex.

Consider 1 compound from paper PMC7463712, “Cholesterol as an Endogenous Ligand of ERRα Promotes ERRα-Mediated Cellular Proliferation and Metabolic Target Gene Expression in Breast Cancer Cells” (Cells, 2020).

The target of this assay is T1, estrogen-related receptor alpha (ERRα; NR3B1) (Homo sapiens, UniProt P11474).
T1 construct: gene ESRRA
T1 sequence (P11474 193-423 limits assumed): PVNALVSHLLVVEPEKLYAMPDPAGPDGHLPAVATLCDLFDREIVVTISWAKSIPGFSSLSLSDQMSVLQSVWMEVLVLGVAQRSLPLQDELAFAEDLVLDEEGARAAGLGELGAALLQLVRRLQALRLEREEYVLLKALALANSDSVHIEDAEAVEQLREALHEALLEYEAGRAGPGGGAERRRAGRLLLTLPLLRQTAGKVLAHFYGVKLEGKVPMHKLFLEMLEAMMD
Briefly: tryptophan fluorescence quenching; GST pull-down with LC-MS/MS. In kind it is binding.

Compound `CC(C)CCC[C@@H](C)[C@H]1CC[C@H]2[C@@H]3CC=C4C[C@@H](O)CC[C@]4(C)[C@H]3CC[C@]12C` [cholesterol] had a Kd of 213 nM.
